Measured values as given in ChEMBL document CHEMBL4507301 (2021).

Tests used:
[1] = biological target: Dual specificity tyrosine-phosphorylation-regulated kinase 2 (Homo sapiens) (UniProt Q92630); settings: Compound concentration 1000.0 nM
[2] = biological target: Cyclin-dependent kinase 15 (Homo sapiens) (UniProt Q96Q40); settings: Compound concentration 1000.0 nM
[3] = biological target: Receptor-type tyrosine-protein kinase FLT3 (Homo sapiens) (UniProt P36888); settings: Compound concentration 1000.0 nM
[4] = biological target: Non-receptor tyrosine-protein kinase TYK2 (Homo sapiens) (UniProt P29597); settings: Compound concentration 1000.0 nM
Sequence of Non-receptor tyrosine-protein kinase TYK2 (Homo sapiens) (P29597 whole entry): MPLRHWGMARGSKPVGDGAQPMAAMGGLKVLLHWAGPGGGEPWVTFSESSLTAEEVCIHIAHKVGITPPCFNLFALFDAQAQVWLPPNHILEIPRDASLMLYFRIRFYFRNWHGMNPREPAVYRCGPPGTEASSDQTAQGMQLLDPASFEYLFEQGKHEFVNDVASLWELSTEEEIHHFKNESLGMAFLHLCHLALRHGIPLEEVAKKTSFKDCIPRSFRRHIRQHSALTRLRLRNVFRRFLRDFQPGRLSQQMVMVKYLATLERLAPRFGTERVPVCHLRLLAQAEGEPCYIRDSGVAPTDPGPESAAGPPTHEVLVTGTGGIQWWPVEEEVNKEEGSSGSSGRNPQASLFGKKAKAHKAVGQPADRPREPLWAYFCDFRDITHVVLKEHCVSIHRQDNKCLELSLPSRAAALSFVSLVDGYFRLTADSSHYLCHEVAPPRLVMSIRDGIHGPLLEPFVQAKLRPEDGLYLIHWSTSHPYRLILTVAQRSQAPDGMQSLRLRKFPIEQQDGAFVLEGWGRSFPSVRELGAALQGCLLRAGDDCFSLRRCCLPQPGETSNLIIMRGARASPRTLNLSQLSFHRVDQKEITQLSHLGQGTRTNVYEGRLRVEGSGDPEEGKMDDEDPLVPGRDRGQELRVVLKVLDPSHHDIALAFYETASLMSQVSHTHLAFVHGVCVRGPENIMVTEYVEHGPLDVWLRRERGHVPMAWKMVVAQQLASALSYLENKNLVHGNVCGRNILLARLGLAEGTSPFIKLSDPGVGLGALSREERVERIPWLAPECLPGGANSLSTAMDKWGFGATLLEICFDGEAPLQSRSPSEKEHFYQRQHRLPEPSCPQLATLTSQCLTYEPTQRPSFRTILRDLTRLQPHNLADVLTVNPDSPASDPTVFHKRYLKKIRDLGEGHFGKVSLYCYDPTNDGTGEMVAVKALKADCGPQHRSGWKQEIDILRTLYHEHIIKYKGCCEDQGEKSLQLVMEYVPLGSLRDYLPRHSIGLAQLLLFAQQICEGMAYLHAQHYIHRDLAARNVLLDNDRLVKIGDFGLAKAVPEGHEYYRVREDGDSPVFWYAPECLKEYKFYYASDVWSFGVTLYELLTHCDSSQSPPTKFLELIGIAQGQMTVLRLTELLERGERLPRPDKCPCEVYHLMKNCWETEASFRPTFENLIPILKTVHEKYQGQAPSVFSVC

[5] = biological target: cGMP-dependent protein kinase 2 (Homo sapiens) (UniProt Q13237); settings: Compound concentration 1000.0 nM
[6] = biological target: Serine/threonine-protein kinase PLK4 (Homo sapiens) (UniProt O00444); settings: Compound concentration 1000.0 nM
[7] = biological target: Ephrin type-A receptor 3 (Homo sapiens) (UniProt P29320); settings: Compound concentration 1000.0 nM
[8] = biological target: 5'-AMP-activated protein kinase catalytic subunit alpha-1 (Homo sapiens) (UniProt Q13131); settings: Compound concentration 1000.0 nM
[9] = system: Receptor-type tyrosine-protein kinase FLT3 (Homo sapiens), P36888 [D835H]; settings: Compound concentration 1000.0 nM
[10] = biological target: Calcium/calmodulin-dependent protein kinase type 1G (Homo sapiens) (UniProt Q96NX5); settings: Compound concentration 1000.0 nM
[11] = biological target: Death-associated protein kinase 1 (Homo sapiens) (UniProt P53355); settings: Compound concentration 1000.0 nM
[12] = biological target: Serine/threonine-protein kinase Sgk1 (Homo sapiens) (UniProt O00141); settings: Compound concentration 1000.0 nM
[13] = biological target: Tyrosine-protein kinase TXK (Homo sapiens) (UniProt P42681); settings: Compound concentration 1000.0 nM
[14] = biological target: Interleukin-1 receptor-associated kinase 1 (Homo sapiens) (UniProt P51617); settings: Compound concentration 1000.0 nM
[15] = biological target: RAC-gamma serine/threonine-protein kinase (Homo sapiens) (UniProt Q9Y243); settings: Compound concentration 1000.0 nM
[16] = biological target: Activin receptor type-1 (Homo sapiens) (UniProt Q04771); settings: Compound concentration 1000.0 nM
Sequence of Activin receptor type-1 (Homo sapiens) (Q04771 whole entry): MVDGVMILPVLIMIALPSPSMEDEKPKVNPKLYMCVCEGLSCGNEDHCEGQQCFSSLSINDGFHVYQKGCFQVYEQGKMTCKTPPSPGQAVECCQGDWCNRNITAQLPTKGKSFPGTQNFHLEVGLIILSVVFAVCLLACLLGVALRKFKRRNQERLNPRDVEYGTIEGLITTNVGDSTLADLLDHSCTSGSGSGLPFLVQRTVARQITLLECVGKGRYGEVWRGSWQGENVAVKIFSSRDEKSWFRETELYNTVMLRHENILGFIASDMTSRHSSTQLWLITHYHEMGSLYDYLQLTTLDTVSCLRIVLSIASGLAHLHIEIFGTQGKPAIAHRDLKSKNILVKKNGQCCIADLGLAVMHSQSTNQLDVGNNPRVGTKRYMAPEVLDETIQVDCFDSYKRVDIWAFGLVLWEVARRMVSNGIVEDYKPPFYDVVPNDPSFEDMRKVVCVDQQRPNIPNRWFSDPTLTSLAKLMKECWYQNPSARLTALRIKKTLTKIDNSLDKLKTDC

[17] = biological target: Tyrosine-protein kinase ABL2 (Homo sapiens) (UniProt P42684); settings: Compound concentration 1000.0 nM
[18] = biological target: Serine/threonine-protein kinase BRSK2 (Homo sapiens) (UniProt Q8IWQ3); settings: Compound concentration 1000.0 nM
[19] = biological target: Serine/threonine-protein kinase PAK 1 (Homo sapiens) (UniProt Q13153); settings: Compound concentration 1000.0 nM
[20] = system: Epidermal growth factor receptor (Homo sapiens), P00533 [UNDEFINED MUTATION]; settings: Compound concentration 1000.0 nM
Sequence of Epidermal growth factor receptor (Homo sapiens), P00533 [UNDEFINED MUTATION] (P00533 whole entry, looked up, change not shown): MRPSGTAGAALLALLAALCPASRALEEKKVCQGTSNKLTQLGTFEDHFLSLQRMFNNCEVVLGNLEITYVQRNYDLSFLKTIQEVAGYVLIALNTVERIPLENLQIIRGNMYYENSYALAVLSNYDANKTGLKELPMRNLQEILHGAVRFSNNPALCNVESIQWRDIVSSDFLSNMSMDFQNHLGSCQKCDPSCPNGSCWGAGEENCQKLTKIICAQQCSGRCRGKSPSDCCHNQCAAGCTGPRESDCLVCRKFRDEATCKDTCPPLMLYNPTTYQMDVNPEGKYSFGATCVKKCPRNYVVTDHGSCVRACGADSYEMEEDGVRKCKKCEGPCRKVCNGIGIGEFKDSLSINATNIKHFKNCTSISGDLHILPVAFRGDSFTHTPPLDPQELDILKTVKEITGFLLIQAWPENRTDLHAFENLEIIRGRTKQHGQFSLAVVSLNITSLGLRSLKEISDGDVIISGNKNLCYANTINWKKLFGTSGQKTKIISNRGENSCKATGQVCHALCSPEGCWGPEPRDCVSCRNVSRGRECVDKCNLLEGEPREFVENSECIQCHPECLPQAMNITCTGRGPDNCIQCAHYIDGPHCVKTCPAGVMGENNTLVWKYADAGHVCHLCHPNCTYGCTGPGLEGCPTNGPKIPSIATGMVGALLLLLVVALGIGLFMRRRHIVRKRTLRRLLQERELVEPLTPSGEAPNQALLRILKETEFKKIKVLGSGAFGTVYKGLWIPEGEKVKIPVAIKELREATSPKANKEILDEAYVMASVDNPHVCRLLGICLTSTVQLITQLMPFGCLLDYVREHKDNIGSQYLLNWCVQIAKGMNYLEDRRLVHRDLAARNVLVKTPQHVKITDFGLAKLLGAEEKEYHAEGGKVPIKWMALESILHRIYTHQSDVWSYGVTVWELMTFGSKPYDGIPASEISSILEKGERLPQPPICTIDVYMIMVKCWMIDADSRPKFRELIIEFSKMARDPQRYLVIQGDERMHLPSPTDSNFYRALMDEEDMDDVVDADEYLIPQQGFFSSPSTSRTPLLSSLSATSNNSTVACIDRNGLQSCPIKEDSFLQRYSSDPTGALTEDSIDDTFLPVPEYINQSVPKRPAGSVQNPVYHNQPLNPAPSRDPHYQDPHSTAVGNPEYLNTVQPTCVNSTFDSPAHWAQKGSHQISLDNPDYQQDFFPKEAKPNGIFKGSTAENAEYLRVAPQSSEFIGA

[21] = biological target: Glycogen synthase kinase-3 alpha (Homo sapiens) (UniProt P49840); settings: Compound concentration 1000.0 nM
[22] = system: Proto-oncogene tyrosine-protein kinase receptor Ret (Homo sapiens), P07949 [M918T]; settings: Compound concentration 1000.0 nM
[23] = biological target: Angiopoietin-1 receptor (Homo sapiens) (UniProt Q02763); settings: Compound concentration 1000.0 nM
[24] = system: Phosphatidylinositol 4,5-bisphosphate 3-kinase catalytic subunit alpha isoform (Homo sapiens), P42336 [I800L]; settings: Compound concentration 1000.0 nM
[25] = biological target: Mitogen-activated protein kinase 12 (Homo sapiens) (UniProt P53778); settings: Compound concentration 1000.0 nM
[26] = biological target: RAF proto-oncogene serine/threonine-protein kinase (Homo sapiens) (UniProt P04049); settings: Compound concentration 1000.0 nM
[27] = biological target: Tyrosine-protein kinase ZAP-70 (Homo sapiens) (UniProt P43403); settings: Compound concentration 1000.0 nM
[28] = system: Tyrosine-protein kinase ABL1 (Homo sapiens), P00519 [E255K]; settings: Compound concentration 1000.0 nM
Sequence of Tyrosine-protein kinase ABL1 (Homo sapiens), P00519 [E255K] (P00519 whole entry E255K): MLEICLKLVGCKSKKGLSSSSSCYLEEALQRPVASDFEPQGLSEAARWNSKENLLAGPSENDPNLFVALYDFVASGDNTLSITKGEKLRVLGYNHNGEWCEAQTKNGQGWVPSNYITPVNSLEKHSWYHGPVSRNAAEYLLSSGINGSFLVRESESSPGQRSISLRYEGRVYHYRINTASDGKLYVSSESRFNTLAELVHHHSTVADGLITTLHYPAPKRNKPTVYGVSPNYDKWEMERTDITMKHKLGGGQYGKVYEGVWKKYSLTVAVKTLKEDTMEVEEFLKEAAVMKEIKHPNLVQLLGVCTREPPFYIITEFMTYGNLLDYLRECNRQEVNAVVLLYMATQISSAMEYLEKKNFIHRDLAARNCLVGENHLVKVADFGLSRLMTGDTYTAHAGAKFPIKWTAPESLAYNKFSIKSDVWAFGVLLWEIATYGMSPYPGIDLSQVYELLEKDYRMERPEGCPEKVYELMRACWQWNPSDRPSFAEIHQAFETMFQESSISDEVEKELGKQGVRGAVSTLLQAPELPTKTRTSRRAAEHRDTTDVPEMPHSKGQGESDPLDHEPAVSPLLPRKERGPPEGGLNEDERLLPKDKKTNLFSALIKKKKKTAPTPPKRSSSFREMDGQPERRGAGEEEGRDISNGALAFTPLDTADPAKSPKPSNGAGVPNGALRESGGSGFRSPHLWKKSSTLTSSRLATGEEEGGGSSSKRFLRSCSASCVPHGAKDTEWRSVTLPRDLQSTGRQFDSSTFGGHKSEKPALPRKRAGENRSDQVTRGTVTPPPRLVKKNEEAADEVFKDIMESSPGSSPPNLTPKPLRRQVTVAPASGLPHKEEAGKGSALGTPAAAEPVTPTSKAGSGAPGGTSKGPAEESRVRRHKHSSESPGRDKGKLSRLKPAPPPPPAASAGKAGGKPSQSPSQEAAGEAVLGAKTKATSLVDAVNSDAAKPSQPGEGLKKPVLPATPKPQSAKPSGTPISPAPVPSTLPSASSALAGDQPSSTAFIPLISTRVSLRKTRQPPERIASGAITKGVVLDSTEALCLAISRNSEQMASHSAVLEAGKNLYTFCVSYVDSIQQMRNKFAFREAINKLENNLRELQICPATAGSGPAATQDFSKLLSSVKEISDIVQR

[29] = biological target: T1, Alpha-2A adrenergic receptor (Homo sapiens) (UniProt P08913); settings: Compound concentration 10.0 uM
T1 sequence (whole entry): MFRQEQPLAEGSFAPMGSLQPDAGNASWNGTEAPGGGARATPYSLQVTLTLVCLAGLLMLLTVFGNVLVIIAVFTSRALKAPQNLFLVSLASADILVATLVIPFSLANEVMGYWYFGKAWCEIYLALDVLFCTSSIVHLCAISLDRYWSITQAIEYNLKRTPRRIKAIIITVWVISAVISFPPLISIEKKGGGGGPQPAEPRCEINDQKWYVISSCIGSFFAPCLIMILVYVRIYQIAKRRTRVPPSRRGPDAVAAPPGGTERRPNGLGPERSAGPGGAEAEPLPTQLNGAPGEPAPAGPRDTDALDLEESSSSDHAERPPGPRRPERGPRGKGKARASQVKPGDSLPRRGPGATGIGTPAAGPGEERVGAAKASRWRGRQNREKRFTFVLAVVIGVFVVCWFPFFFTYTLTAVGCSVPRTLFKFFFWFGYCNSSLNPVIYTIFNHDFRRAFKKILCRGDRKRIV

[30] = biological target: Receptor tyrosine-protein kinase erbB-3 (Homo sapiens) (UniProt P21860); settings: Compound concentration 1000.0 nM
[31] = biological target: Serine/threonine-protein kinase TBK1 (Homo sapiens) (UniProt Q9UHD2); settings: Compound concentration 1000.0 nM
[32] = biological target: Cyclin-dependent kinase 5 (Homo sapiens) (UniProt Q00535); settings: Compound concentration 1000.0 nM
Sequence of Cyclin-dependent kinase 5 (Homo sapiens) (Q00535 whole entry, looked up): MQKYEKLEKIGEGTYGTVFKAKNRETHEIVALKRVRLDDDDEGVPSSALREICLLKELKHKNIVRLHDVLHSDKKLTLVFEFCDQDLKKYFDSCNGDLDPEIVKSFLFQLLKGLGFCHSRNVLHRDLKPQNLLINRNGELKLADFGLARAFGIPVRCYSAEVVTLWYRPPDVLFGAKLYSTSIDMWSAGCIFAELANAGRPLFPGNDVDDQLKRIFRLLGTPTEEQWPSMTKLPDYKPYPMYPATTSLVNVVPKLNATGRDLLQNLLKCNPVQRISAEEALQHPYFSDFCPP

[33] = biological target: Tyrosine-protein kinase Srms (Homo sapiens) (UniProt Q9H3Y6); settings: Compound concentration 1000.0 nM
[34] = biological target: STE20-like serine/threonine-protein kinase (Homo sapiens) (UniProt Q9H2G2); settings: Compound concentration 1000.0 nM
[35] = biological target: Cyclin-dependent kinase 2 (Homo sapiens) (UniProt P24941); settings: Compound concentration 1000.0 nM
[36] = biological target: 5'-AMP-activated protein kinase catalytic subunit alpha-2 (Homo sapiens) (UniProt P54646); settings: Compound concentration 1000.0 nM
[37] = biological target: Serine/threonine-protein kinase OSR1 (Homo sapiens) (UniProt O95747); settings: Compound concentration 1000.0 nM
[38] = biological target: Cytoplasmic tyrosine-protein kinase BMX (Homo sapiens) (UniProt P51813); settings: Compound concentration 1000.0 nM
Sequence of Cytoplasmic tyrosine-protein kinase BMX (Homo sapiens) (P51813 whole entry): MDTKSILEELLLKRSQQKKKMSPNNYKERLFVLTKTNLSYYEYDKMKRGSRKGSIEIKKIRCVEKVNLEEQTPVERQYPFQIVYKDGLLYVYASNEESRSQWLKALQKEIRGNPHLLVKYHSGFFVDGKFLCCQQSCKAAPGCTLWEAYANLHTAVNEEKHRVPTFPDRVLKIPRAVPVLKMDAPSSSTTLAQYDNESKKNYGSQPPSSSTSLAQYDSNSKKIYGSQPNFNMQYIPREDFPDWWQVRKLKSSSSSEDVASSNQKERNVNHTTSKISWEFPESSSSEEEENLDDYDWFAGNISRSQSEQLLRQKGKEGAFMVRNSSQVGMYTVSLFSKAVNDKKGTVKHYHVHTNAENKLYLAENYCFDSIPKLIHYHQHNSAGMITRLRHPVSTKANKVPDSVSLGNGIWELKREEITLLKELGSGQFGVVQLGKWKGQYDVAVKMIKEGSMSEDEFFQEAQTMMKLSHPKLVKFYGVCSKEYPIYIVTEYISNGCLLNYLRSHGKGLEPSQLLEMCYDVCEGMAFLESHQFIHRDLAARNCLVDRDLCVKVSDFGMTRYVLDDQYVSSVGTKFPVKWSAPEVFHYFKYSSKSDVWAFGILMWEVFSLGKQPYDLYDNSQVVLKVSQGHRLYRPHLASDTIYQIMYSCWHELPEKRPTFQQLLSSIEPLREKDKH

C[C@H](c1cccc(C#N)c1)n1cc(Cl)cc(C(N)=O)c1=N [(R)-9s]
inactive: residual activity [1] 84% | residual activity [2] 84% | residual activity [3] 90% | residual activity [4] 100% | residual activity [5] 97% | residual activity [6] 100% | residual activity [7] 100% | residual activity [8] 92% | residual activity [9] 80% | residual activity [10] 100% | residual activity [11] 100% | residual activity [12] 77% | residual activity [13] 85% | residual activity [14] 71% | residual activity [15] 100% | residual activity [16] 88% | residual activity [17] 90% | residual activity [18] 85% | residual activity [19] 100% | residual activity [20] 75% | residual activity [21] 61% | residual activity [22] 91% | residual activity [23] 96% | residual activity [24] 56% | residual activity [25] 100% | residual activity [26] 100% | residual activity [27] 92% | residual activity [28] 87% | inhibition [29] 4.64% | residual activity [30] 92% | residual activity [31] 98% | residual activity [32] 100% | residual activity [33] 75% | residual activity [34] 100% | residual activity [35] 100% | residual activity [36] 94% | residual activity [37] 81% | residual activity [38] 77%

C[C@@H](c1cccc(C#N)c1)n1cc(Cl)cc(C(N)=O)c1=N [(S)-9s]
inactive: residual activity [1] 98% | residual activity [2] 89% | residual activity [3] 92% | residual activity [4] 100% | residual activity [5] 100% | residual activity [6] 100% | residual activity [7] 92% | residual activity [8] 100% | residual activity [9] 81% | residual activity [10] 100% | residual activity [11] 100% | residual activity [12] 100% | residual activity [13] 68% | residual activity [14] 76% | residual activity [15] 100% | residual activity [16] 96% | residual activity [17] 84% | residual activity [18] 95% | residual activity [19] 100% | residual activity [20] 93% | residual activity [21] 82% | residual activity [22] 100% | residual activity [23] 90% | residual activity [24] 71% | residual activity [25] 73% | residual activity [26] 100% | residual activity [27] 84% | residual activity [28] 82% | inhibition [29] -1.01% | residual activity [30] 91% | residual activity [31] 89% | residual activity [32] 92% | residual activity [33] 83% | residual activity [34] 88% | residual activity [35] 100% | residual activity [36] 96% | residual activity [37] 93% | residual activity [38] 95%
